Source: paper PMC5103216, “Novel Agonist Bioisosteres and Common Structure-Activity Relationships for The Orphan G Protein-Coupled Receptor GPR139” (Scientific Reports, 2016)
pEC50: −log10 of the molar value.

Legend:
Assay type in all cases: cell-based
GPR139 [1] = biological target: T1, GPR139 (Homo sapiens, UniProt Q6DWJ6); test: cAMP dynamic 2 assay measuring Gs activation in CHO-139
T1 sequence (Q6DWJ6 1-353): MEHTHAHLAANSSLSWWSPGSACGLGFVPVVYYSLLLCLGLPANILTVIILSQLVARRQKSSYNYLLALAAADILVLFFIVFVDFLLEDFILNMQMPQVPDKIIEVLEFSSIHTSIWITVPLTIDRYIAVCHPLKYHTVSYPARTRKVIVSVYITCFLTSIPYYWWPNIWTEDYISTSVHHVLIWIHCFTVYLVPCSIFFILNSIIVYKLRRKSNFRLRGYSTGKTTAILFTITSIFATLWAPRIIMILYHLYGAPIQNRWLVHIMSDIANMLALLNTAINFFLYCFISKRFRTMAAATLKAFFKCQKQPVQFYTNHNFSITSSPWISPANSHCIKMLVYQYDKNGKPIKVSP
Protocol: (§1) The cAMP assay was performed as described in the work by Thomsen et al.[28] with few modifications. Breifly, CHO-139 and CHO-M1 was detached and resuspended to a concentration of 1 million cells/mL. 5 μL 2x concentrated compound (for Gs: +100 μM IBMX and for Gi: +100 μM IBMX +10 μM forskolin (Fsk)) and 5 μL cell suspension (5,000 cells/well) was mixed. The plate was sealed and incubated at room temperature for 30 min. Next, 10 μL detection reagents (lysis buffer containing 2.5% Eu^3+-anti-cAMP antibody and 2.5% cAMP-d2) was added and the plate was incubated for 1 hour at room temperature. The plate was read on an Envision (PerkinElmer, Waltham, MA, USA). The TR-FRET 665 nm/615 nm ratio, which is inversely proportional with the cAMP production, was used to determination the concentration of the cAMP response. […]
(§2) Supplementary Figure 1. cAMP dynamic 2 assay measuring Gs activation. 5,000 cells/well of CHO-139 (pink bars) or CHO-M1 (blue bars) cells are
(§3) incubated with the indicated compounds for 30 min at room temperature in the presence of 50 µM IBMX. 5 µM and 10 µM forskolin (Fsk) serves as positive
(§4) controls. The responses are one representative out of at two independent experiments performed in triplicates. Data points are means ± SD. […]
(§5) Data points are means ± SD.

M1 receptor = biological target: T2, M1 receptor (Homo sapiens, UniProt P11229); test: cAMP dynamic 2 assay measuring Gs activation in CHO-M1 (control)
T2 construct: host or cells: CHO-k1
T2 sequence (P11229 1-460): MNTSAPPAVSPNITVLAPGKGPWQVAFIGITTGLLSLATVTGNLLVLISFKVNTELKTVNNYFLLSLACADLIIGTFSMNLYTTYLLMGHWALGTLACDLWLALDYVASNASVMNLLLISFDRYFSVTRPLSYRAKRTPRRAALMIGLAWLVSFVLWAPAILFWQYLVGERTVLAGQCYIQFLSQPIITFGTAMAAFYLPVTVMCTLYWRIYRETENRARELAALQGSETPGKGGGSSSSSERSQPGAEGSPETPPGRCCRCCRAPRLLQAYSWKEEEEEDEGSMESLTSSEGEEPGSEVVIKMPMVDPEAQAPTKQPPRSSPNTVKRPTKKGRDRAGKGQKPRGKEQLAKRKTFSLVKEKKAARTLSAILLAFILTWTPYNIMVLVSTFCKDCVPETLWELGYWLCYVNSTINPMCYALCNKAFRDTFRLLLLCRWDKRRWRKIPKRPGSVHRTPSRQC
Protocol: as §1, §2, §3, §4, §5

GPR139 [2] = biological target: T1, GPR139; test: Fluo-4 Ca2+-assay in CHO-k1 cells stably expressing GPR139 (CHO-GPR139); details: for pEC50: CHO-GPR139, mean of at least three experiments; for Emax: CHO-K1, relative to 1a
Protocol: Compound 1a[11] was kindly provided by H. Lundbeck A/S, Denmark. Compound 7c (Enamine no: Z31449867) was tested as a racemate, as the (S)-form described by Janssen et al. was not commercially available. All compounds were dissolved to 20 mM in DMSO (Sigma, D2650) and subsequently diluted in a HEPES buffer (HBSS (Invitrogen, 14025) supplemented with 20 mM HEPES + 1 mM MgCl2 + 1 mM CaCl2, pH = 7.4) to a final concentration 0.5% DMSO in the assay. The DMSO level was kept constant for all concentrations of all compounds. DMSO was confirmed not to have any activity by itself at this concentration. L-Tryptophan (T0254) and L-Phenylalanine (P2126) were obtained from Sigma-Aldrich and dissolved directly in buffer.
All compounds were tested on a CHO-k1 cell line stably expressing GPR139 (CHO-GPR139) kindly provided by H. Lundbeck A/S, Denmark, and also on a CHO-k1 cell line stably expressing the M1 receptor (CHO-M1) (The Missouri S&T cDNA Resource Center, #CEM100TN00) to check for specificity. The CHO-GPR139 was grown in Dulbecco’s modified eagle medium (DMEM) F12-Kaighn’s (Gibco, 21127) supplemented with 10% dialysed fetal bovine serum (Gibco, 26400, United States origin), 1% GlutaMAX^TM-I (100X) (Gibco, 35050), and 100 units/mL penicillin and 100 μg/mL streptomycin (Gibco, 15140) and 1.0 mg/mL geneticin (Invitrogen, 1181103). CHO-M1 was grown in Ham’s F12 (Gibco, 21765) supplemented with 10% fetal bovine serum (Gibco, 10270, South America origin) +100 units/mL penicillin and 100 μg/mL streptomycin (Invitrogen, 15140–122) and 0,25 mg/mL geneticin (Life Technologies, 11811–031). Compound 1a and carbamoylcholine chloride (Sigma-Aldrich, C4382) were used as positive controls in the two cell lines, respectively.
30.000 cells/well were plated in black 96-well plates with flat clear bottoms (Corning, Falcon, 353219) and incubated overnight. The Fluo-4 dye loading solution (Invitrogen, F36206) was prepared according to the manufacturer’s instructions by dissolving it in HEPES buffer supplemented with 2.5 mM probenecid. 50 μL dye loading solution was added to each well. Cells were incubated with the Fluo-4 dye for 60 min at 37 °C, then washed with 100 μL HEPES buffer. 100 μL HEPES buffer supplemented with 2.5 mM probenecid was then added to each well and incubated in 10 minutes at 37 °C before measurement. 33 μL of the test compounds (4x concentrated) were added automatically after baseline measurements. Intracellular calcium change was recorded on a NOVOstar instrument (BMG Labtech) at 37 °C with an excitation filter of 485 nm and an emission filters 520 nm. Data originate from three independent experiments in triplicates.

O=C(CN1CCCc2ccccc21)NNC(=O)c1ccc2c(c1)OCO2 [DL22]
Gs response (cAMP) (GPR139 [1]): None of the tested compounds induced Gs response | Gs response (cAMP) (M1 receptor): None of the tested compounds induced Gs response | pEC50 (GPR139 [2]): 6.35 | Emax (GPR139 [2]): 105%

COc1cc(OC)cc(C(=O)NNC(=O)C2CCCc3ccccc32)c1 (stereo not drawn) [DL24]
Gs response (cAMP) (GPR139 [1]): None of the tested compounds induced Gs response | Gs response (cAMP) (M1 receptor): None of the tested compounds induced Gs response | pEC50 (GPR139 [2]): 6.37 | Emax (GPR139 [2]): 109%

CCn1c(C)nc2cc(C(=O)NNC(=O)Cc3cccc4ccccc34)ccc21 [DL43]
Gs response (cAMP) (GPR139 [1]): None of the tested compounds induced Gs response | Gs response (cAMP) (M1 receptor): None of the tested compounds induced Gs response | fold lower potency than 1a (GPR139 [2]): ~ 10 fold | pEC50 (GPR139 [2]): 6.44 | Emax (GPR139 [2]): 97%

O=C(Cc1cccc2ccccc12)NNC(=O)c1ccc2c(c1)OCO2 [DL126]
Gs response (cAMP) (GPR139 [1]): None of the tested compounds induced Gs response | Gs response (cAMP) (M1 receptor): None of the tested compounds induced Gs response | fold lower potency than 1a (GPR139 [2]): ~ 10 fold | pEC50 (GPR139 [2]): 6.39 | Emax (GPR139 [2]): 91%

O=C(CNC(=O)c1ccc2c(c1)OCO2)NC1CCSc2ccc(F)cc21 (stereo not drawn) [DL130]
Gs response (cAMP) (GPR139 [1]): None of the tested compounds induced Gs response | Gs response (cAMP) (M1 receptor): None of the tested compounds induced Gs response | pEC50 (GPR139 [2]): 6.05 | Emax (GPR139 [2]): 89%

O=C(NCC(=O)N1CCCC1c1ccccc1)c1ccc2c(c1)OCO2 (stereo not drawn) [DL132]
Gs response (cAMP) (GPR139 [1]): None of the tested compounds induced Gs response | Gs response (cAMP) (M1 receptor): None of the tested compounds induced Gs response | pEC50 (GPR139 [2]): 6.30 | Emax (GPR139 [2]): 94%
